How the values were obtained:
[1] = tested on: PC9 (LC); test: MTT cell viability, PC9; format: cell-based, human; details: 48 h / 24 hours, relative IC50
Procedure: (§1) Cell culture: In the following examples, unless otherwise specified, all cell lines are purchased from American Type Culture Collection and cultured in American Type Culture Collection (ATCC)-recommended media, with fetal bovine serum (FBS) to a final concentration of 10% and 1×penicillin/streptomycin at 37° C. with 5% CO2 in a cell culture incubator, unless otherwise specified. Unless otherwise specified, culture is 2D. Where culture is 3D, low attachment plates are used, with the same media. C4-2B (parental cell line and drug-resistant cells derived therefrom) are cultured in RPMI-1640 with 10% FBS. MDVR cells (an Enzalutamide-resistant variety of C4-2B prostate cancer cells formed as described in Example 4 below) are cultured as indicated for the parental C4-2B cells. 22RV1 Prostate Cancer (PC) cells (ATCC® CRL-2505™, a human prostate carcinoma cell line of epithelial morphology) are cultured in RPMI-1640 with 10% FBS. A549 cells (ATCC® CCL-185™, a human lung carcinoma cell line of epithelial morphology) are cultured in F-12K medium with 10% FBS. A549/DDP cells (Cells were described in DOI: 10.3892/mmr.2014.2163 and in doi: 10.7150/jca.19426; cisplatin resistant cells may be established from exposing parental A549 cells to cisplatin for an extended time). MDR A549/cisplatin lung adenocarcinoma cell line, drug resistant) are cultured in F-12K medium with 10% FBS. H1975 cells (ATCC® CRL-5908™, a human adenocarcinoma non-small cell lung cancer cell line of epithelial morphology) are cultured in RPMI-1640 medium with 10% FBS; H1975 cells are a cell model for human lung cancer that is resistant to Gefitinib (an EGFR inhibitor drug used for treatment of certain breast, lung and other cancers). H1650 cells (ATCC® CRL-5883™, a adenocarcinoma/bronchoalveolar carcinoma lung cancer cell line of epithelial morphology) are cultured in RPMI-1640 medium with 10% FBS. […]

[2] = tested on: A549 (LC); test: MTT cell viability, A549; format: cell-based, human; details: 48 h / 24 hours, relative IC50
Procedure: as §1

[3] = tested on: H446 (LC); test: MTT cell viability, H446; format: cell-based, human; details: relative IC50
Procedure: as §1

[4] = tested on: 22Rv1 human prostate carcinoma tumors; test: Tumor volume of 22Rv1 tumors grown subcutaneously in mice; format: in vivo; details: 5 mg/kg, intravenously injected
Procedure: Example 1D: 22Rv1 human prostate carcinoma cells are cultured as described above, separated from the medium, resuspended in 50% phosphate buffered saline (PBS) and 50% BD Matrigel™ (BD Biosciences, CA), and then the re-suspended cells are injected and grown subcutaneously in mice. […] The decrease of the THSD in the tumors at 2 and 4 weeks, respectively, as determined by NIR signal, is less than about 30%.
Example 1E: 22Rv1 human prostate carcinoma cells are cultured, injected and grown subcutaneously in mice as described above in example 1D. Tumor volume is monitored by measuring the size by caliper and calculating volume as described in example 9 below. The mice are intravenously injected with the following: ALSD of formula FIId, “DZ2a”, compound 7, the corresponding unconjugated dye (here: DZ1), unconjugated Simvastatin, a statin drug (SIM), and docetaxel (DOC), a cancer drug, and a mixture of the ALSD with DOC. Each active was administered in an amount of 5 mg/kg for the ALSD, DZ1, and SIM, except, in case of DOC, 8 mg/kg. A slower rate of increased tumor volume indicates tumor suppressive activity.

[5] = tested on: H1975 (LC); test: MTT cell viability, H1975; format: cell-based, human; details: relative IC50
Procedure: as §1

[6] = tested on: A549DDP (LC); test: MTT cell viability, A549DDP; format: cell-based, human; details: 48 h / 24 hours, relative IC50
Procedure: as §1
[…] For each cell line, the IC50 is determined for each drug, i.e. the ELSD, the ALSD, and for the corresponding unconjugated statin (Simvastatin), in concentrations from 0.1-100 μM. […]

[7] = tested on: H1650 (LC); test: MTT cell viability, H1650; format: cell-based, human; details: relative IC50
Procedure: as §1

| IC50 [1] | IC50 [2] | IC50 ([3]; 48 h / 24 hours) | IC50 ([5]; 48 h / 24 hours) | IC50 [6] | IC50 ([7]; 48 h / 24 hours) | IC50 ([1]; Homo sapiens) | IC50 ([2]; Homo sapiens) | IC50 ([3]; Homo sapiens, NCI-H446, 48 h / 24 hours) | IC50 ([5]; Homo sapiens, NCI-H1975, 48 h / 24 hours) | IC50 ([6]; Homo sapiens, A549/DDP) | IC50 ([7]; Homo sapiens, NCI-H1650, 48 h / 24 hours) | Compound | tumor suppressive activity (tumor volume increase) [4] |
| --- | --- | --- | --- | --- | --- | --- | --- | --- | --- | --- | --- | --- | --- |
| > 50 µM | > 50 µM | > 50 µM | > 50 µM | > 50 µM | > 50 µM |  |  |  |  |  |  | CC1(C)C(/C=C/C2=C(Cl)C(=C/C=C3/N(CCCCCC(=O)O)c4ccccc4C3(C)C)/CCC2)=[N+](CCCCS(=O)(=O)[O-])c2ccccc21 [DZ1] | no significant tumor suppressive activity |
|  |  |  |  |  |  | 33 µM | > 50 µM | 39 µM | > 50 µM | 30 µM | 33.3 µM | CCC(C)(C)C(=O)O[C@H]1C[C@@H](C)C=C2C=C[C@H](C)[C@H](CC[C@@H]3C[C@@H](O)CC(=O)O3)[C@H]21 [Simvastatin] |  |
